Our source for the IC50 values is BindingDB's records for patent US9120808 (Nabriva Therapeutics, 2015).

Test [1] concerns the target Beta-lactamase (Escherichia coli (strain K12), UniProt P00811). The test is described as follows: Cell Free Inhibition Assay. To be noted: pH 7; 37 °C. As for the experimental part: (§1) Assays are performed with beta -lactamases expressed in the pET system (Novagen, San Diego, Calif.) without signal peptides. They contain an N-terminal hexa-Histidine tag that is used for purification on Ni-NTA (Qiagen, Hilden, Germany). The compounds are prepared as 50 mM stocks in DMSO and diluted into buffer P1 (50 mM phosphate, pH 7) to a final concentration of 10% DMSO. All further dilutions are done in P2 (P1 with 10% DMSO). Enzyme and compound dilutions are pre-incubated for 10 min at 37 C. and the reaction is started with the addition of pre-warmed (37 C.) […]. The change in absorption at 490 nm is followed at 37 C. for 10 min with 30 s intervals.

Test [2] addresses Beta-lactamase TEM (Escherichia coli, UniProt P62593). The experiment in a line: Cell Free Inhibition Assay. Particulars: pH 7; 37 °C. The method, then: as §1

Each structure is given as a SMILES string. Where “and” joins values, the source holds several entries; their conditions need not be identical. Equal entries are not always repeated.

Chain of Beta-lactamase (P00811 whole entry): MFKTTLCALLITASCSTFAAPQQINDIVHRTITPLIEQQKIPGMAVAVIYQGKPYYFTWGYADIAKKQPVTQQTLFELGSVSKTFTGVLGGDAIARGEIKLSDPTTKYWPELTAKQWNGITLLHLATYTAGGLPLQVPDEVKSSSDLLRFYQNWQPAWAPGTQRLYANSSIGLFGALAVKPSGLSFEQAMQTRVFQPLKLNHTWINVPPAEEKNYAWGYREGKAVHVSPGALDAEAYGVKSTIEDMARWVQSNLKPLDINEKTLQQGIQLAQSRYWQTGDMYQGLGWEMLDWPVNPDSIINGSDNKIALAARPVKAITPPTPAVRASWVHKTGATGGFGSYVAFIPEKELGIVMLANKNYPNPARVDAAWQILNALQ
Chain of Beta-lactamase TEM (P62593 whole entry): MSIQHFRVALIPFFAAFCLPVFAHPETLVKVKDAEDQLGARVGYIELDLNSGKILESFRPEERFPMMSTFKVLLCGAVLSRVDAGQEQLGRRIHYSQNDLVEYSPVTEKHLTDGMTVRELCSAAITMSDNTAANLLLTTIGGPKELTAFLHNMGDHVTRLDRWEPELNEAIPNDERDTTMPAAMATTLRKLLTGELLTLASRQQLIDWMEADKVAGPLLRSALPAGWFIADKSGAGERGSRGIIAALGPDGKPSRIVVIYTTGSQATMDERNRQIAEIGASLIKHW

For `O=CC=C1O[C@@H]2CC(=O)N2C1(CC=CCO)C(=O)OCc1ccccc1` (single isomer, unassigned) [US9120808, Example 9], in test [1], the half-inhibitory concentration (IC50) is 115 µM and 14.3 µM. Turning to `O=C(O)C=C1O[C@@H]2CC(=O)N2C1(C/C=C/c1ccccc1)C(=O)OCc1ccccc1` (single isomer, unassigned) [US9120808, Example 28], the IC50 in test [1] was 6.02 µM and 11.7 µM. The same measure, in the same setting: for `COC(=O)C1(C/C=C/c2ccccc2)C(=CC(=O)O)O[C@@H]2CC(=O)N21` (single isomer, unassigned) [US9120808, Example 36] the value was 41.1 µM and 4.19 µM. Turning to `O=C1OC(CI)CC1=C1O[C@@H]2CC(=O)N2C1C(=O)OCc1ccccc1` (single isomer, unassigned) [US9120808, Example 42], the IC50 in test [1] was 0.285 µM and 0.385 µM.

In test [1], `C=CCC(C=O)=C1O[C@@H]2CC(=O)N2C1C(=O)OCc1ccccc1` (some centres not stated) [US9120808, Example 1] registered an IC50 of 10.4 µM. Still for that read-out and setting: the result for `C=CCC1(C(=O)OCc2ccccc2)C(=CC=O)O[C@@H]2CC(=O)N21` (some centres not stated) [US9120808, Example 2] reads 58.8 µM; that for `C=CCC(C=O)=C1O[C@@H]2CC(=O)N2C1(CC=C)C(=O)OCc1ccccc1` (some centres not stated) [US9120808, Example 3], 95.1 µM. In test [1], `O=CC(CC=CCO)=C1O[C@@H]2CC(=O)N2C1C(=O)OCc1ccccc1` (some centres not stated) [US9120808, Example 7] had an IC50 of 5.38 µM.

As for `CC(=O)OCC=CCC(C=O)=C1O[C@@H]2CC(=O)N2C1C(=O)OCc1ccccc1` (some centres not stated) [US9120808, Example 10], the IC50 in test [1] is 16 µM.

On to `C=CCC(C=O)=C1O[C@@H]2CC(=O)N2C1C(=O)OC` (some centres not stated) [US9120808, Example 16], for which the IC50 in test [1] was 0.941 µM. As for `C=CCC1(C(=O)OC)C(=CC=O)O[C@@H]2CC(=O)N21` (some centres not stated) [US9120808, Example 17], in test [1], inhibition was half-maximal at 36 µM (IC50). Compound `C=CCC(C(=O)O)=C1O[C@@H]2CC(=O)N2C1C(=O)OCc1ccccc1` (some centres not stated) [US9120808, Example 24] yielded an IC50 in test [1] of 4.98 µM.

Turning to `C=CCC(C(=O)O)=C1O[C@@H]2CC(=O)N2C1C(=O)OC` (some centres not stated) [US9120808, Example 32], the IC50 in test [1] amounted to 2.86 µM. As to `CC1CC(=C2O[C@@H]3CC(=O)N3C2C(=O)O)C(=O)O1` (some centres not stated) [US9120808, Example 50], the IC50 in test [1] was 27 µM.

For the compound `CCCC(C(=O)O)=C1O[C@@H]2CC(=O)N2C1C(=O)O` (some centres not stated) [US9120808, Example 51], the IC50 in test [1] came to 415 µM. `COC(=O)C1C(=C(CCCc2ccccc2)C(=O)O)O[C@@H]2CC(=O)N12` (some centres not stated) [US9120808, Example 53] yielded an IC50 in test [1] of 0.541 µM.

Turning to `CCCC(C(=O)O)=C1O[C@@H]2CC(=O)N2C1C(=O)OC` (some centres not stated) [US9120808, Example 54], inhibition in test [1] was half-maximal at 3.42 µM (IC50). `CCCC(CO)=C1O[C@@H]2CC(=O)N2C1C(=O)O` (some centres not stated) [US9120808, Example 55] gave an IC50 in test [2] of 118 µM. In test [2], `CCCC1(C(=O)O)/C(=C/CO)O[C@@H]2CC(=O)N21` (some centres not stated) [US9120808, Example 56] had an IC50 of 17.8 µM.

In test [1], `COC(=O)C(CCCc1ccccc1)=C1O[C@@H]2CC(=O)N2C1C(=O)OC` (some centres not stated) [US9120808, Example 57] displayed a 50% inhibitory concentration (IC50) of 5.33 µM. Regarding `O=C(O)C(CC=CCN(Cc1ccccc1)C(=O)OCc1ccccc1)=C1O[C@@H]2CC(=O)N2C1C(=O)OCc1ccccc1` (some centres not stated) [US9120808, Example 58], in test [1], inhibition was half-maximal at 4.51 µM (IC50). Same read-out and setting: the result for `O=C(OCc1ccccc1)C1C(=C2COC(CI)C2)O[C@@H]2CC(=O)N12` (some centres not stated) [US9120808, Example 59] reads 6.45 µM.

As usually defined, the IC50 is the concentration that inhibits the measured activity by half. A low value points to inhibition by little substance.
